Experiment [1] concerns the target T1, human μ opiate receptor (Homo sapiens, UniProt P35372).
T1 construct: purchased PerkinElmer Life Sciences, Zaventem, Belgium RB-HOM; host or cells: CHO-K1 cells (recombinant expression)
Description: Affinity for the human μ opiate receptor ([3H]-naloxone displacement, CHO-K1 membrane preparation, SPA). The format is binding. The note with it: for μ opioid receptor [1 μM], % inhibition / inhibition at 1 µM: 1 μM test substance, displacement of [3H]-naloxone; for inhibition at 1 µM: read-out: μ opioid receptor [1 μM], % inhibition; for pKi: Cheng-Prusoff conversion from IC50, read-out: μ opioid receptor, Ki. A digest of the protocol:
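CHO-K1 membranes expressing human μ receptor (15-40 μg protein/250 μl) were incubated 90 min at room temperature with 1 nmol/l [³H]-naloxone and WGA-SPA beads in 50 mmol/l Tris-HCl with 0.06% BSA; 100 μmol/l naloxone defined nonspecific binding. Percent displacement measured at 1 μmol/l; IC50 converted to Ki via Cheng-Prusoff.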
On the technique in general: Displacement assays read how much labelled ligand stays bound in the presence of the test substance.

Experiment [2] addresses T2, Serotonin reuptake (Rattus norvegicus, UniProt P31652).
T2 construct: synaptosomes are freshly isolated from areas of the rat brain; from tissue
Nature of the experiment: Inhibition of serotonin (5HT) reuptake in rat brain synaptosomes. It is filed as biochemical. The procedure: (§1) In order to be able to carry out these in vitro studies, synaptosomes are freshly isolated from areas of the rat brain. In each case a so-called “P2” fraction prepared in accordance with the instruction of Gray and Whittaker (E. G. Gray and V. P. Whittaker (1962) J. Anat. 76, 79-88) is prepared. For the NA uptake, these vesicular particles are isolated from the hypothalamus of male rat brains.
(§2) A detailed description of the method can be found in the literature (M. Ch. Frink, H.-H. Hennies, W. Englberger, M. Haurand and B. Wilffert (1996) Arzneim.-Forsch./Drug Res. 46 (III), 11, 1029-1036).

For experiment [3], the system named is phenylquinone-induced writhing in mice. Nature of the experiment: Phenylquinone writhing. The format is in vivo. The note with it: 10 mg/kg intravenously, male NMRI mice. The protocol:
The analgesic activity was investigated in the phenylquinone-induced writhing in mice (modified in accordance with I. C. Hendershot und J. Forsaith (1959) J. Pharmacol. Exp. Ther. 125, 237-240), Male NMRI mice weighing from 25 to 30 g were used for this. Groups of 10 animals per substance dose received 0.3 ml/mouse of a 0.02% strength aqueous solution of phenylquinone (phenylbenzoquinone, Sigma, Deisenhofen; preparation of the solution with the addition of 5% ethanol and storage in a water bath at 45° C.) administered intraperitoneally 10 minutes after intravenous administration of the test substances. The animals were placed individually in observation cages. The number of pain-induced stretching movements (so-called writhing reactions=straightening of the body with stretching of the rear extremities) was counted by means of a push-button counter 5 to 20 minutes after the administration of phenylquinone. Animals which receive only 5% strength Cremophor solution were also run as a control. All the substances were tested in the standard dosage of 10 mg/kg. The percentage inhibition (% inhibition) of the writhing reaction by a substance was calculated according to the following formula: […]
(In writhing tests, fewer writhes than in controls are read as antinociception.)

In experiment [4] the target is T3, Noradrenaline reuptake (Rattus norvegicus, UniProt Q63380).
T3 construct: synaptosomes are freshly isolated from areas of the rat brain; from tissue; host or cells: P2 synaptosome fraction from the hypothalamus of male rat brains
T3 sequence (Q63380 1-617): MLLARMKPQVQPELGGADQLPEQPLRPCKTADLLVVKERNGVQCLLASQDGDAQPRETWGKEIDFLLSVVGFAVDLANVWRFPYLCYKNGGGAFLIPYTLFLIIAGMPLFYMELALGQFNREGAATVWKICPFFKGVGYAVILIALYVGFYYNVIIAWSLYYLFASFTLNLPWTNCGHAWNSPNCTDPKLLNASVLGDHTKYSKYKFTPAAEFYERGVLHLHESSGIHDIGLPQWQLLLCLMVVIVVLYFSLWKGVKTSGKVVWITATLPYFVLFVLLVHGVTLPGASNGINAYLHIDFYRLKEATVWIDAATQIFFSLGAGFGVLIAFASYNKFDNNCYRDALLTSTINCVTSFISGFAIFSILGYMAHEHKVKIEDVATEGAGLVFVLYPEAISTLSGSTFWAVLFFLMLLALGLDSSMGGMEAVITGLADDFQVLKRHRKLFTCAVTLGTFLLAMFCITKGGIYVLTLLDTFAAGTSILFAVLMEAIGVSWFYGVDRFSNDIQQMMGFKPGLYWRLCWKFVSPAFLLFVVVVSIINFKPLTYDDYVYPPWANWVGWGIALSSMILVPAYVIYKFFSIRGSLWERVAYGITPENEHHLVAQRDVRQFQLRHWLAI
Description: Inhibition of noradrenaline (NA) reuptake in rat brain synaptosomes. It is filed as biochemical. Conditions: synaptosomes from rat hypothalamus. The procedure: as §1, §2

pKi: −log10 of the molar value. Structures can show the parent of a compound that is named as a salt.

The inhibition is the change of the read-out against control, counted positive when it falls. The pKi is −log10 of the Ki, conventionally taken in molar units.

T1 sequence (P35372 whole entry): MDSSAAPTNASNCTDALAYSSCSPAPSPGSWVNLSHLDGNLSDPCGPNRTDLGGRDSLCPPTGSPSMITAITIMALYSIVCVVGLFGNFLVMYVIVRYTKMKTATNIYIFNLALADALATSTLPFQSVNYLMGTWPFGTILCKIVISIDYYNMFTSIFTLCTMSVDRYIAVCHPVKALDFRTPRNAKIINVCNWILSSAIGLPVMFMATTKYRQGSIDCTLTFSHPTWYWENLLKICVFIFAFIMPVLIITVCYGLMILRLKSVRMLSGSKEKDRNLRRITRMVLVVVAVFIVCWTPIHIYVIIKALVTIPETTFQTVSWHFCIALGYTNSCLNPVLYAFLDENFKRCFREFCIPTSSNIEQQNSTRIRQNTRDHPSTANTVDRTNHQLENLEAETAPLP
T2 sequence (P31652 whole entry): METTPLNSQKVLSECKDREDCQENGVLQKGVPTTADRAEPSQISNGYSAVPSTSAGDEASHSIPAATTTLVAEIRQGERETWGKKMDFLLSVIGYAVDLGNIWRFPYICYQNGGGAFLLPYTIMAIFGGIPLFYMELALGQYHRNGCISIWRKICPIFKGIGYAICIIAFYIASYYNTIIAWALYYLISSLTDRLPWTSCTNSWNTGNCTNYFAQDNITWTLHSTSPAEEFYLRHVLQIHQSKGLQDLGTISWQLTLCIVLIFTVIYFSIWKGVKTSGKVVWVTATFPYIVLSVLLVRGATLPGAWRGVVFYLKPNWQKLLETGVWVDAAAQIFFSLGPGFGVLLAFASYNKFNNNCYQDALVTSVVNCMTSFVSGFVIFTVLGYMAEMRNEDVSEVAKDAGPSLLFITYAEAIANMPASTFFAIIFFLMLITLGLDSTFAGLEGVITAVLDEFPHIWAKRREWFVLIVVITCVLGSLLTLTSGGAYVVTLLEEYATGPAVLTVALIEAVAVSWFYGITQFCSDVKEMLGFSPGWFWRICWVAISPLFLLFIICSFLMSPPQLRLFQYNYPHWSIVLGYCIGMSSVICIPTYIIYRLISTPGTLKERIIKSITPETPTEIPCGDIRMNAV

Regarding `CN(C)C(c1ccc(F)cc1)C1CCC2(CC1)NCCc1c2[nH]c2ccccc12` (stereo not shown) [Compound 17, 1,1-[3-(Dimethylamino-(4-fluorophenyl)methyl)-pentamethylene]-3,4-dihydro-1H-2,9-diazafluorene], the “μ opioid receptor [1 μM], % inhibition” value in experiment [1] is on record as 46%. Moreover, the “Serotonin reuptake, % inhibition [10 μM]” value in experiment [2] was found to be 83%. The “% inhibition of the writhing reaction (dosage in mg/kg intravenously)” value (from here on “% inhibition of the writhing reaction”) in experiment [3] is reported as 52 (10) %.
For the compound `CN(C)C(c1cccs1)C1CCC2(CC1)NCCc1c2[nH]c2ccccc12` (stereo not shown) [Compound 21, 1,1-[3-(Dimethylamino-(thiophen-2-yl)-methyl)-pentamethylene]-3,4-dihydro-1H-2,9-diazafluorene], in experiment [1], the “μ opioid receptor [1 μM], % inhibition” value is given as 62%. In experiment [4], the “Noradrenaline reuptake, % inhibition [10 μM]” value came out at 50%. Moreover, the “Serotonin reuptake, % inhibition [10 μM]” value in experiment [2] is 72%.
For `CN(C)C(c1ccc(Cl)cc1)C1CCC2(CC1)NCCc1c2[nH]c2ccccc12` (stereo not shown) [Compound 22, 1,1-[3-(4-Chlorophenyl-(dimethylamino)-methyl)-pentamethylene]-3,4-dihydro-1H-2,9-diazafluorene], in experiment [1], the “μ opioid receptor [1 μM], % inhibition” value came out at 33%. Further, the “Serotonin reuptake, % inhibition [10 μM]” value in experiment [2] is listed as 76%.
In the case of `CN(C)C(c1ccc(F)cc1)C1CCC2(CC1)OCCc1c2[nH]c2ccccc12` (stereo not shown) [Compound 25, 1,1-[3-(Dimethylamino-(4-fluorophenyl)-methyl)-pentamethylene]-1,3,4,9-tetrahydro-pyrano[3,4-b]indole], in experiment [1], the inhibition at 1 µM came to 86% and the pKi is 6.46. The inhibition at 10 µM in experiment [2] turned out to be 68%.
For the compound `CN(C)C(c1cccc(F)c1)C1CCC2(CC1)OCCc1c2[nH]c2ccccc12` (stereo not shown) [Compound 26, 1,1-[3-(Dimethylamino-(3-fluorophenyl)-methyl)-pentamethylene]-1,3,4,9-tetrahydro-pyrano[3,4-b]indole Citrate], the inhibition at 1 µM in experiment [1] turned out to be 94%. The negative-log Ki (pKi) in experiment [1] was 7.48. Further, the inhibition at 10 µM in experiment [4] was 49%; in experiment [2], 59%.
For the compound `CN(C)C(CCc1ccccc1)C1CCC2(CC1)OCCc1c2[nH]c2ccccc12` (stereo not shown) [Compound 28, 1,1-[3-(Dimethylamino-(phenylethyl)-methyl)-pentamethylene]-1,3,4,9-tetrahydropyrano[3,4-b]indole], in experiment [1], the inhibition at 1 µM was 92% and the pKi was 6.96. Besides, the inhibition at 10 µM in experiment [4] was found to be 52%. Moreover, the inhibition at 10 µM in experiment [2] amounted to 57%.
Consider `CN(C)C(c1ccc(F)cc1)C1CCC2(CC1)OCCc1c2[nH]c2ccc(F)cc12` (stereo not shown) [Compound 35, 6-Fluoro-1,1-[3-(dimethylamino-(4-fluorophenyl)-methyl) -pentamethylene]-1,3,4,9-tetrahydropyrano[3,4-b]indole], for which, in experiment [1], the inhibition at 1 µM was determined as 98% and the negative logarithm of the Ki (pKi) was 7.17. The inhibition at 10 µM in experiment [4] turned out to be 50%. Besides, in experiment [2], the inhibition at 10 µM is 55%.
In the case of `CN(C)C(c1ccccc1)C1CCC2(CC1)OCCc1c2[nH]c2ccc(F)cc12` (stereo not shown) [Compound 37, 6-Fluoro-1,1-[3-(dimethylamino-(phenyl)-methyl)-pentamethylene]-1,3,4,9-tetrahydro-pyrano[3,4-b]indole], in experiment [1], the inhibition at 1 µM is 74% and the pKi was 7.43. Besides, the inhibition at 10 µM in experiment [2] amounted to 68%.
Take `CN(C)C(c1ccc(Cl)cc1)C1CCC2(CC1)OCCc1c2[nH]c2ccc(F)cc12` (stereo not shown) [Compound 38, 6-Fluoro-1,1-[3-(dimethylamino-(4-chlorophenyl)-methyl)-pentamethylene]-1,3,4,9-tetrahydropyrano[3,4-b]indole]: in experiment [1], the inhibition at 1 µM stood at 84% and the pKi is 6.59. The inhibition at 10 µM in experiment [4] came to 59%. The inhibition at 10 µM in experiment [2] was found to be 57%.
Take `Cc1ccc2[nH]c3c(c2c1)CC(C)OC31CCC(C(c2ccc(F)cc2)N(C)C)CC1` (stereo not shown) [Compound 40, 3,6-Dimethyl-1,1-[3-(dimethylamino-(4-fluorophenyl)-methyl) -pentamethylene]-1,3,4,9-tetrahydropyrano[3,4-b]indole]: the “μ opioid receptor [1 μM], % inhibition” value in experiment [1] came out at 68%. In experiment [2], the “Serotonin reuptake, % inhibition [10 μM]” value is recorded as 47%.
On to `Cc1ccc2[nH]c3c(c2c1)CC(C)OC31CCC(C(c2cccc(F)c2)N(C)C)CC1` (stereo not shown) [Compound 41, 3,6-Dimethyl-1,1-[3-(dimethylamino-(3-fluorophenyl)-methyl) -pentamethylene]-1,3,4,9-tetrahydropyrano[3,4-b]indole], for which, in experiment [1], the inhibition at 1 µM came out at 88% and the pKi is 6.52. Further, the “% inhibition of the writhing reaction” value in experiment [3] is given as 40 (10) %.
Consider `Cc1ccc2[nH]c3c(c2c1)CC(C)OC31CCC(C(c2ccccc2)N(C)C)CC1` (stereo not shown) [Compound 42, 3,6-Dimethyl-1,1-[3-(dimethylamino-(phenyl)-methyl)-pentamethylene]-1,3,4,9-tetrahydropyrano[3,4-b]indole Citrate], for which, in experiment [1], the inhibition at 1 µM amounted to 101% and the negative logarithm of the Ki (pKi) is 7.54. In addition, the inhibition at 10 µM in experiment [2] came to 64%.
For `Cc1ccc2[nH]c3c(c2c1)CC(C)OC31CCC(C(c2ccc(Cl)cc2)N(C)C)CC1` (stereo not shown) [Compound 44, 3,6-Dimethyl-1,1-[3-(dimethylamino-(4-chlorophenyl)-methyl) -pentamethylene]-1,3,4,9-tetrahydropyrano[3,4-b]indole], in experiment [1], the inhibition at 1 µM is 72% and the pKi is 6.31. Also, the “% inhibition of the writhing reaction” value in experiment [3] is reported as 48 (10) %.
Turning to `CC1Cc2c([nH]c3ccc(F)cc23)C2(CCC(C(c3ccc(F)cc3)N(C)C)CC2)O1` (stereo not shown) [Compound 51, 6-Fluoro-3-methyl-1,1-[3-(dimethylamino-(4-fluorophenyl) -methyl)-pentamethylene]-1,3,4,9-tetrahydropyrano[3,4-b]indole], in experiment [1], the “μ opioid receptor [1 μM], % inhibition” value is 46%. Besides, the “Serotonin reuptake, % inhibition [10 μM]” value in experiment [2] was determined as 39%.
For `CC1Cc2c([nH]c3ccc(F)cc23)C2(CCC(C(c3cccc(F)c3)N(C)C)CC2)O1` (stereo not shown) [Compound 52, 6-Fluoro-3-methyl-1,1-[3-(dimethylamino-(3-fluorophenyl) -methyl)-pentamethylene]-1,3,4,9-tetrahydropyrano[3,4-b]indole], the “μ opioid receptor [1 μM], % inhibition” value in experiment [1] worked out at 53%. For the same compound, the “Serotonin reuptake, % inhibition [10 μM]” value in experiment [2] is 68%.
With `CC1Cc2c([nH]c3ccc(F)cc23)C2(CCC(C(c3ccccc3)N(C)C)CC2)O1` (stereo not shown) [Compound 53, 6-Fluoro-3-methyl-1,1-[3-(dimethylamino-(phenyl)-methyl) -pentamethylene]-1,3,4,9-tetrahydropyrano[3,4-b]indole], in experiment [1], the inhibition at 1 µM came out at 97% and the pKi is 7.09. Besides, the inhibition at 10 µM in experiment [4] was found to be 47%. Also, the inhibition at 10 µM in experiment [2] worked out at 60%.
On to `CC1Cc2c([nH]c3ccc(F)cc23)C2(CCC(C(CCc3ccccc3)N(C)C)CC2)O1` (stereo not shown) [Compound 54, 6-Fluoro-3-methyl-1,1-[3-(dimethylamino-(phenylethyl)-methyl) -pentamethylene]-1,3,4,9-tetrahydropyrano[3,4-b]indole], for which, in experiment [1], the “μ opioid receptor [1 μM], % inhibition” value was 21%. Moreover, the “Serotonin reuptake, % inhibition [10 μM]” value in experiment [2] is 55%.
In the case of `CC(CC(=O)N1CCc2c([nH]c3ccccc23)C12CCC(C(c1ccc(F)cc1)N(C)C)CC2)c1ccccc1` (stereo not shown) [Compound 142, 1-{1,1-[3-(dimethylamino-(4-fluorophenyl)methyl) -pentamethylene]-3,4-dihydro-1H-2,9-diazafluoren-2-yl}-3-phenylbutan-1-one], in experiment [1] (compounds prepared via automated synthesis, single measurements at a test concentration of 1 μM), the “μ opioid receptor [1 μmol], % inhibition” value was determined as 30%.
